From US8163921B2, “Hepatitis C virus inhibitors” (Bristol-Myers Squibb Company, priority 2008, dated 2012)
Like-named read-outs stand apart in the source and are kept apart here.

Tests used:
[1] = biological target: T1, HCV NS3/4A protease complex, BMS strain (UniProt P27958, C1454S/C1711G, species not given); test: FRET peptide assay to monitor HCV NS3/4A proteolytic activity (BMS strain); format: biochemical, HCV genotype 1a; conditions: read-out: IC50 Range, HCV NS3/4A enzyme assay
T1 construct: other: HCV NS3/4A enzyme assay; class symbols; numeric values; fused on or other part: three-lysine solubilising tail at the C-terminus of NS4A; purified on Ni-NTA from the pET21b vector (His tag implied)
Outline: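 Recombinant HCV NS3/4A protease complex (BMS strain, genotype 1a), 2-3 nM final (300 pM with 50 μg/ml BSA for very potent compounds), incubated with RET S1 EDANS/DABCYL depsipeptide substrate at 2 μM final. Buffer: 50 mM HEPES pH 7.5, 0.15 M NaCl, 0.1% Triton, 15% glycerol, 10 mM βME. Cleavage followed in real time by fluorescence.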

[2] = test system: HCV replicon in HUH-7 cells; test: HCV replicon FRET assay; format: cell-based, HCV strain 1b; conditions: Hepatitis C virus

Compound | IC50 ([1]; class symbols) [nM] | EC50 ([2]; Huh-7, read-out: EC50 Range) [nM] | IC50 ([1]; numeric values) [nM] | EC50 ([2]; Huh-7, HCV replicon cell assay, numeric values, read-out: EC50 Range) [nM]
C=C[C@@H]1C[C@]1(NC(=O)[C@@H]1C[C@@H](Oc2ncc(OC)c3ccc(Cl)cc23)CN1C(=O)[C@@H](Nc1nc(-c2c(OC)cccc2OC)cs1)C(C)(C)C)C(=O)NS(=O)(=O)C1CC1 [Example 58] | 1 to 20 | 1 to 50 | – | –
C=C[C@@H]1C[C@]1(NC(=O)[C@@H]1C[C@@H](Oc2ncc(OC)c3ccc(Cl)cc23)CN1C(=O)[C@@H](Nc1nc(-c2cc(Cl)c(C)cc2OC)cs1)C(C)(C)C)C(=O)NS(=O)(=O)C1CC1 [Example 59] | 1 to 20 | 1 to 50 | – | –
C=C[C@@H]1C[C@]1(NC(=O)[C@@H]1C[C@@H](Oc2ncc(OC)c3ccc(Cl)cc23)CN1C(=O)[C@@H](Nc1nc(-c2cc(-c3ccccc3)no2)cs1)C(C)(C)C)C(=O)NS(=O)(=O)C1CC1 [Example 85] | 1 to 20 | 1 to 50 | – | –
C=C[C@@H]1C[C@]1(NC(=O)[C@@H]1C[C@@H](Oc2ncc(OC)c3ccc(Cl)cc23)CN1C(=O)[C@@H](Nc1nc(-c2cc(C)c(Cl)cc2F)cs1)C(C)(C)C)C(=O)NS(=O)(=O)C1CC1 [Example 92] | 1 to 20 | 1 to 50 | – | –
C=C[C@@H]1C[C@]1(NC(=O)[C@@H]1C[C@@H](Oc2ncc(OC)c3ccc(Cl)cc23)CN1C(=O)[C@@H](Nc1nc(-c2ccsc2)cs1)C(C)(C)C)C(=O)NS(=O)(=O)C1CC1 [Example 93] | 1 to 20 | 1 to 50 | – | –
COc1cnc(O[C@@H]2C[C@@H](C(=O)N[C@]3(C(=O)NS(=O)(=O)C4CC4)C[C@H]3CC(F)F)N(C(=O)[C@@H](Nc3nc(-c4ccc(F)c(C(F)(F)F)c4)cs3)C(C)(C)C)C2)c2cc(Cl)ccc12 [Example 97, (2S,4R)-4-(7-chloro-4-methoxyisoquinolin-1-yloxy)-N-((1R,2S)-1-(cyclopropylsulfonylcarbamoyl)-2-(2,2-difluoroethyl)cyclopropyl)-1-((S)-2-(4-(4-fluoro-3-(trifluoromethyl)phenyl)thiazol-2-ylamino)-3,3-dimethylbutanoyl)pyrrolidine-2-carboxamide] | 1 to 20 | 1 to 50 | – | –
COc1cnc(O[C@@H]2C[C@@H](C(=O)N[C@]3(C(=O)NS(=O)(=O)C4CC4)C[C@H]3CC(F)F)N(C(=O)[C@@H](Nc3nc(-c4cc(-c5ccc(Cl)cc5)no4)cs3)C(C)(C)C)C2)c2cc(Cl)ccc12 [Example 98] | 1 to 20 | 1 to 50 | – | –
COc1cnc(O[C@@H]2C[C@@H](C(=O)N[C@]3(C(=O)NS(=O)(=O)C4CC4)C[C@H]3CC(F)F)N(C(=O)[C@@H](Nc3nc(-c4ccc(Oc5ccccc5)cc4)cs3)C(C)(C)C)C2)c2cc(Cl)ccc12 [Example 99] | 20 to 200 | 50 to 200 | – | –
C=C[C@@H]1C[C@]1(NC(=O)[C@@H]1C[C@@H](Oc2ncc(OC)c3ccc(Cl)cc23)CN1C(=O)C(C)Nc1nnnn1-c1ccccc1)C(=O)NS(=O)(=O)C1CC1 (stereo partly drawn) [Example 100] | – | – | 795 | 334
